Measured values from ChEMBL document CHEMBL1268853, “Characterization of Acetylcholinesterase Inhibitory Constituents from Annona glabra Assisted by HPLC Microfractionation” (J Nat Prod, 2010).
Counter-ions that a name gives are not always drawn.

Target: Acetylcholinesterase (Electrophorus electricus, UniProt O42275)
Assay: Inhibition of electric eel AChE by Ellman's method

Chain of Acetylcholinesterase (O42275 whole entry): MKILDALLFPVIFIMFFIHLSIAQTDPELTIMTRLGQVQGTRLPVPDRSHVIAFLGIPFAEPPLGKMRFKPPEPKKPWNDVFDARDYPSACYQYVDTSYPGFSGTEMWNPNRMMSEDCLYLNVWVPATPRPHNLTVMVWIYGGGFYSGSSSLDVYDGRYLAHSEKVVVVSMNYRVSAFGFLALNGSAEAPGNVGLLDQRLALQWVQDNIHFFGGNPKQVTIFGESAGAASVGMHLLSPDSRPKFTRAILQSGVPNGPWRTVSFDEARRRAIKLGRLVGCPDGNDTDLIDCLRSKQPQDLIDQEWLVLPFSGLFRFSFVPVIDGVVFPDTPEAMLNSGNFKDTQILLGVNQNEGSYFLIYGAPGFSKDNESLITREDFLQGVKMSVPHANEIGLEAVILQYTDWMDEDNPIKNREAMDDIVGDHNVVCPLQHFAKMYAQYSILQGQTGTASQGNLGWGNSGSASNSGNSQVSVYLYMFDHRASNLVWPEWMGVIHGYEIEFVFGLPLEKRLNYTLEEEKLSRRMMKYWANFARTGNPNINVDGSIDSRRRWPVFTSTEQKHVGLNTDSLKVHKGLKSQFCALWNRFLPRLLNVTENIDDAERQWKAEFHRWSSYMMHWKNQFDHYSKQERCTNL

SMILES	IC50 [µM]
COc1c(O)c2c3c(c1OC)-c1ccccc1C[C@H]3NCC2	110
COc1cc2c(cc1OC)[C@@H]1Cc3ccc(O)c(OC)c3C=[N+]1CC2	30.8
COc1cc2c(cc1OC)-c1cc3ccc(O)c(OC)c3c[n+]1CC2 [DEHYDROCORYDALMINE TRIFLUOROACETATE]	96.5
COc1cc2c(cc1O)C[C@H]1NCCc3cc4c(c-2c31)OCO4	> 117
COc1c(O)cc2c3c1-c1ccccc1C[C@H]3NCC2	123
COc1cc2c(cc1O)C[N@+]1(C)CCc3cc(OC)c(OC)cc3[C@@H]1C2	8.4
COc1cc2ccnc3c2c(c1OC)-c1cc2c(cc1C3=O)OCO2	> 150
COc1cc2c(cc1O)-c1cc3cc(OC)c(OC)cc3c[n+]1CC2 [PSEUDOCOLUMBAMINE TRIFLUOROACETATE]	5
COc1cc2c3c(c1O)-c1c(ccc(OC)c1OC)C[C@@H]3[N+](C)(C)CC2	> 140
COc1c(O)c2c3c(c1OC)-c1cc4c(cc1C[C@@H]3NCC2)OCO4	76.9
O=C1c2ccccc2-c2c3c(cc4ccnc1c24)OCO3 [LIRIODENINE]	> 150
COc1cc2c(cc1OC)-c1cc3cc(OC)c(OC)cc3c[n+]1CC2 [PSEUDOPALMATINE TRIFLUOROACETATE]	1.8
O[C@@H]1c2ccccc2-c2c3c(cc4c2[C@H]1NCC4)OCO3	> 126
COc1cc2c[n+]3c(cc2cc1O)-c1cc(OC)c(OC)cc1CC3 [DEHYDROCORYTENCHINE TRIFLUOROACETATE]	97.6
COc1cc2c(cc1O)C=[N+](C)CC2	16
COc1cc2ccnc3c2c(c1OC)-c1ccccc1C3=O [LYSICAMINE]	16.1
COc1cc2c(cc1O)C=[N+]1CCc3cc(OC)c(OC)cc3[C@@H]1C2	154
COc1cccc2c1C(=O)c1c(C)cc(=O)[nH]c1C2=O	23.4
COc1ccc(C[C@H]2c3cc(O)c(OC)cc3CCN2C)cc1O	72.2
